The nature of data set [1]: Pharmacokinetics in Balb/c mice, single intravenous bolus administration. In kind it is in vivo. To be noted: intravenous bolus 1 mg/kg, gender F; for AUC(0-inf) / half-life / Vd: female, mouse, plasma; for AUC(0-inf): read-out: AUCINF_obs; for half-life: read-out: T½ (converted); for Vd: read-out: Vss.
For data set [2] the following is noted: Balb/c, mouse, in vivo, po, 10 mg/kg.
A short description of the next data set: in vivo. To be noted: Balb/c, mouse, po, 10 mg/kg; for AUC(0-t): AUClast; for half-life: T½.
The next data set deals with Mnk1 (Homo sapiens (Human), UniProt Q9BUB5). Description: biochemical.
Mnk1, sequence (Q9BUB5 whole entry): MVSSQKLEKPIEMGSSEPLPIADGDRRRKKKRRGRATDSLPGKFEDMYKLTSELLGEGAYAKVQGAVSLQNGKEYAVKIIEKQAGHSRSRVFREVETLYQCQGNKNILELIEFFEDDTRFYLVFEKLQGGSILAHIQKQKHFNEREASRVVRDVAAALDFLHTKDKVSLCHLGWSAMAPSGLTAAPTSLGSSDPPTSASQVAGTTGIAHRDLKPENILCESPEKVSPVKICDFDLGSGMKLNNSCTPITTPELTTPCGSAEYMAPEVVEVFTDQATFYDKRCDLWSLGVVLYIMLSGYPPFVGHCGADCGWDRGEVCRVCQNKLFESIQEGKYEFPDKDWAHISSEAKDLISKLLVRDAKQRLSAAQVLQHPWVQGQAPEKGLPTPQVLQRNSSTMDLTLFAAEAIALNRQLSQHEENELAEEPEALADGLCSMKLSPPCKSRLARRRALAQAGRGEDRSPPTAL
Another data set deals with Mnk2 (Homo sapiens (Human), UniProt Q9HBH9). Nature of the data set: biochemical.
Mnk2, sequence (Q9HBH9 whole entry): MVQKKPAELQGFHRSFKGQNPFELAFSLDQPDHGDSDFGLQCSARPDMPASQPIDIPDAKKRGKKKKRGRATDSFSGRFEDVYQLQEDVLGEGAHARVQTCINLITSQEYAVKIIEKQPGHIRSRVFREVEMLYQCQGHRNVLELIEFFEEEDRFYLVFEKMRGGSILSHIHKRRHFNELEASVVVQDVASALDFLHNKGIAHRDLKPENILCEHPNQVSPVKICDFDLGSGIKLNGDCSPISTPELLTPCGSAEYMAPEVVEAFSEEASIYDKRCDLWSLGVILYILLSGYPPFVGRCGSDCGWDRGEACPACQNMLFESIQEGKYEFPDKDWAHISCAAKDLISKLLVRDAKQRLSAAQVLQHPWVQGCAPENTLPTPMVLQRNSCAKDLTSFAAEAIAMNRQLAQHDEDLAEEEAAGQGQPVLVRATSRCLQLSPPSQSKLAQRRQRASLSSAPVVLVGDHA
Setting [3] is: formulation 10DMA/15EtOH/35PEG300/40D5W.
[4] abbreviates: formulation 10DMI/15EtOH/35PG/40D5W.
Where [5] appears, read: formulation 10DMI/15EtOH/35PG/40Saline.

Counter-ions that a name gives are not always drawn. Like-named read-outs stand apart in the source and are kept apart here.

One may read the AUC(0-t) as exposure summed from dosing to a finite time, without extrapolation to infinity. Read a low AUC(0-t) as low exposure. The Cmax is the highest concentration seen after dosing. The term Tmax denotes the time at which the peak concentration occurs. A word on the IC50: it is the concentration that inhibits the measured activity by half.

`Nc1cc(Nc2cc(Cl)c3n(c2=O)C2(CCCC2)NC3=O)ncn1` [Cpd. No. 94, 6-[(6-aminopyrimidin-4-yl)amino]-8-chloro-spiro[2H-imidazo[1,5-a]pyridine-3,1′-cyclopentane]-1,5-dione]: in data set [1] (setting [3]), the AUC(0-inf) turned out to be 812 ng·h/mL, the half-life was 5.81 h, the Vd was 12.2 L/kg and the Cl_obs stood at 20.5 mL/min/kg. The compound also registered a Tlast in data set [2] (female) of 8 h. For the same compound, in the data set “in vivo” (female), the AUC(0-t) was found to be 6070 ng·h/mL, the Cmax was found to be 1800 ng/mL, the Tmax is 0.5 h and the half-life is 2 h. The same compound displayed an IC50 on Mnk1 below 0.01 µM.
In the case of `CC1(C)NC(=O)c2c(Cl)cc(Nc3ncnc4cnccc34)c(=O)n21` [Cpd. No. 165, 8-chloro-3,3-dimethyl-6-(pyrido[3,4-d]pyrimidin-4-ylamino)-2,3-dihydroimidazo[1,5-a]pyridine-1,5-dione], at Mnk1, the IC50 fell in the range of 0.01 to 0.1 µM.
For the compound `Cc1cc(Nc2cc(N)ncn2)c(=O)n2c1C(=O)NC2(C)c1cccc(Cl)c1` (centres unmarked) [Cpd. No. 92, 6-[(6-aminopyrimidin-4-yl)amino]-3-(3-chlorophenyl)-3,8-dimethyl-2H-imidazo[1,5-a]pyridine-1,5-dione], the IC50 at Mnk1 was below 0.01 µM.
Take `O=C1NC2(CNC2)n2c1c(Cl)cc(Nc1cc(NC(=O)C3CC3)ncn1)c2=O` [Cpd. No. 86, N-[6-[(8-chloro-1,5-dioxo-spiro[2H-imidazo[1,5-a]pyridine-3,3′-azetidine]-6-yl)amino]pyrimidin-4-yl]cyclopropanecarboxamide hydrochloride]: the IC50 on Mnk1 is below 0.01 µM.
The compound `Nc1cc(Nc2cc(Cl)c3n(c2=O)C2(CCc4ccc(Cl)cc42)NC3=O)ncn1` (centres unmarked) [Cpd. No. 111, 6-[(6-aminopyrimidin-4-yl)amino]-6′,8-dichloro-spiro[2H-imidazo[1,5-a]pyridine-3,1′-indane]-1,5-dione hydrochloride] showed an IC50 at Mnk1 below 0.01 µM.
For `CC1(c2cc(F)cc(Cl)c2)NC(=O)c2ccc(Nc3ccncn3)c(=O)n21` (centres unmarked) [Cpd. No. 28, 3-(3-chloro-5-fluorophenyl)-3-methyl-6-(pyrimidin-4-ylamino)-2,3-dihydroimidazo[1,5-a]pyridine-1,5-dione], the IC50 against Mnk1 fell in the range of 0.01 to 0.1 µM.
As to `Nc1cc(Nc2cc(Cl)c3n(c2=O)C2(CCCCC2)NC3=O)ncn1` [Cpd. No. 70, 6′-((6-aminopyrimidin-4-yl)amino)-8′-chloro-2′H-spiro[cyclohexane-1,3′-imidazo[1,5-a]pyridine]-1′,5′-dione], in data set [1] (setting [4]), the AUC(0-inf) worked out at 333 ng·h/mL, the half-life was 0.561 h, the Vd is 1.8 L/kg and the Cl_obs stood at 50.1 mL/min/kg. In data set [2] (female), this compound displayed an AUClast of 2010 ng·h/mL, a Tlast of 8 h and a T½ of 3.74 h. In the data set “in vivo” (female), the AUC(0-t) is 1470 ng·h/mL, the Cmax was 983 ng/mL, the Tmax turned out to be 0.25 h and the half-life is 2 h.
In turn, `CC1(c2cc(Cl)cc(Cl)c2)NC(=O)c2ccc(Nc3ccncn3)c(=O)n21` (centres unmarked) [Cpd. No. 33, 3-(3,5-dichlorophenyl)-3-methyl-6-(pyrimidin-4-ylamino)-2,3-dihydroimidazo[1,5-a]pyridine-1,5-dione] had an IC50 at Mnk1 of 0.01 to 0.1 µM.
For `Cc1cc(Nc2cc(N)ncn2)c(=O)n2c1C(=O)NC21CCC(F)(F)CC1` [Cpd. No. 103, 6-[(6-aminopyrimidin-4-yl)amino]-4′,4′-difluoro-8-methyl-spiro[2H-imidazo[1,5-a]pyridine-3,1′-cyclohexane]-1,5-dione hydrochloride], the IC50 at Mnk1 is below 0.01 µM.
On to `CC1(C2CCCC2)N(C#N)C(=O)c2ccc(Nc3cc(N)ncn3)c(=O)n21` (centres unmarked) [Cpd. No. 118, 6-[(6-aminopyrimidin-4-yl)amino]-3-cyclopentyl-3-methyl-1,5-dioxo-imidazo[1,5-a]pyridine-2-carbonitrile], for which the IC50 at Mnk2 was below 0.01 µM.
Turning to `CC1(C)NC(=O)c2ccc(Nc3cc(NC(=O)C4CC4)ncn3)c(=O)n21` [Cpd. No. 10, N-(6-((3,3-dimethyl-1,5-dioxo-1,2,3,5-tetrahydroimidazo[1,5-a]pyridin-6-yl)amino)pyrimidin-4-yl)cyclopropanecarboxamide], in data set [1] (setting [5]), the AUC(0-inf) came to 396 ng·h/mL, the half-life was 2.8 h, the Vd turned out to be 5.45 L/kg and the Cl_obs stood at 42.1 mL/min/kg. The same compound yielded a Tlast in data set [2] (female) of 8 h. The Tlast in data set [2] (male) is recorded as 24 h. In “in vivo” (female), the AUC(0-t) stood at 6420 ng·h/mL, the Cmax is 1720 ng/mL, the Tmax came to 0.5 h and the half-life is 1.87 h. For the same compound, in “in vivo” (male), the AUC(0-t) turned out to be 8750 ng·h/mL, the peak level (Cmax) was 2160 ng/mL, the Tmax came to 1 h and the half-life was 4.22 h.
Turning to `CC1(C)NC(=O)c2c(Cl)cc(Nc3cc(N)ncn3)c(=O)n21` [Cpd. No. 88, 6-[(6-aminopyrimidin-4-yl)amino]-8-chloro-3,3-dimethyl-2H-imidazo[1,5-a]pyridine-1,5-dione], in data set [1] (setting [3]), the AUC(0-inf) came out at 273 ng·h/mL, the half-life was 1.3 h, the Vd was determined as 3.03 L/kg and the Cl_obs is 61 mL/min/kg. This compound came in with a Tlast in data set [2] (female) of 8 h. For the same compound, in “in vivo” (female), the AUC(0-t) is 2040 ng·h/mL, the Cmax is 810 ng/mL, the Tmax turned out to be 0.5 h and the half-life is 2.97 h.
Take `O=c1c(Nc2ccncn2)ccc2n1C1(CCCCC1)NC2=S` [Cpd. No. 131, 6′-(pyrimidin-4-ylamino)-1′-thioxo-1′,2′-dihydro-5′H-spiro[cyclohexane-1,3′-imidazo[1,5-a]pyridin]-5′-one]: the IC50 on Mnk1 lay within 0.01 to 0.1 µM.
Regarding `Cl.O=C1NC2(CCCNC2)n2c1c(Cl)cc(Nc1cc(NC(=O)C3CC3)ncn1)c2=O` (centres unmarked) [Cpd. No. 60, N-(6-((8-chloro-1,5-dioxo-1,5-dihydro-2H-spiro[imidazo[1,5-a]pyridine-3,3′-piperidin]-6-yl)amino)pyrimidin-4-yl)cyclopropanecarboxamide hydrochloride], the Tlast in data set [2] (female) is listed as 4 h. In “in vivo” (female), the AUC(0-t) was found to be 78.2 ng·h/mL, the highest level (Cmax) was 36 ng/mL, the Tmax was found to be 1 h and the half-life is 2.21 h. The IC50 against Mnk1 was below 0.01 µM.
As to `CC(C)(C)C1(C)NC(=O)c2c(Cl)cc(Nc3cc(N)ncn3)c(=O)n21` (centres unmarked) [Cpd. No. 105, 6-[(6-aminopyrimidin-4-yl)amino]-3-tert-butyl-8-chloro-3-methyl-2H-imidazo[1,5-a]pyridine-1,5-dione hydrochloride], the IC50 against Mnk1 was below 0.01 µM.
Consider `O=C1NC2(CCNC2)n2c1ccc(Nc1ccncn1)c2=O` (centres unmarked) [Cpd. No. 26, 6-(pyrimidin-4-ylamino)-1H-spiro[imidazo[1,5-a]pyridine-3,3′-pyrrolidine]-1,5(2H)-dione], for which, on Mnk1, the IC50 was 0.01 to 0.1 µM.
Consider `Cl.Cl.Nc1cc(Nc2cc(Cl)c3n(c2=O)C2(CCNCC2)NC3=O)ncn1` [Cpd. No. 108, 6-((6-aminopyrimidin-4-yl)amino)-8-chloro-2H-spiro[imidazo[1,5-a]pyridine-3,4′-piperidine]-1,5-dione dihydrochloride], for which, in “in vivo” (female), the Cmax was 44 ng/mL, the Tmax worked out at 0.3 h and the half-life is 0.3 h. Besides, the IC50 on Mnk1 was below 0.01 µM.
`Cc1cc(Nc2cc(N)ncn2)c(=O)n2c1C(=O)NC2(C)c1cccc(F)c1` (centres unmarked) [Cpd. No. 101, 6-((6-aminopyrimidin-4-yl)amino)-3-(3-fluorophenyl)-3,8-dimethyl-2,3-dihydroimidazo[1,5-a]pyridine-1,5-dione] registered a half-maximal inhibitory concentration (IC50) against Mnk1 below 0.01 µM.
In the case of `CC1(c2cccc(Cl)c2)NC(=O)c2c(Cl)cc(Nc3cc(NC(=O)C4CC4)ncn3)c(=O)n21` (centres unmarked) [Cpd. No. 51, N-[6-[[8-chloro-3-(3-chlorophenyl)-3-methyl-1,5-dioxo-2H-imidazo[1,5-a]pyridin-6-yl]amino]pyrimidin-4-yl]cyclopropanecarboxamide], in data set [1] (setting [5]), the AUC(0-inf) came to 2500 ng·h/mL, the half-life was 5.78 h, the Vd came to 2.79 L/kg and the Cl_obs is listed as 6.66 mL/min/kg. In data set [2] (female), this compound came in with an AUClast of 35800 ng·h/mL, a Tlast of 24 h and a T½ of 8.36 h. Also, in “in vivo” (female), the AUC(0-t) was found to be 31300 ng·h/mL, the concentration peaked (Cmax) at 3160 ng/mL and the half-life is 7.38 h.
On Mnk1, `Cc1cc(Nc2cc(N)ncn2)c(=O)n2c1C(=O)NC21CCCN(C)C1` (centres unmarked) [Cpd. No. 170, 6-[(6-aminopyrimidin-4-yl)amino]-1′,8-dimethyl-spiro[2H-imidazo[1,5-a]pyridine-3,3′-piperidine]-1,5-dione] registered an IC50 below 0.01 µM.

These data come from patent US9669031B2, “MNK inhibitors and methods related thereto” (eFFECTOR Therapeutics, Inc., priority 2014, dated 2017).
